Results from patent publication US10925915B2, “Use of a Copaifera extract to combat alopecia and seborrhea” (PIERRE FABRE DERMO-COSMETIQUE, priority 2017, dated 2021).

System: 5α-reductase
Test: 5α-reductase activity of fibroblasts derived from human follicle dermal papillae ([C14]-testosterone metabolism to dihydrotestosterone)
Type: cell-based
Method: The study is performed on human cells derived from donor follicle dermal papillae. This model is attractive since dermal papillae have the 5α2 isoform as in prostate tissue. The cells are seeded in 24-well plates and cultured for 24 hours in DMEM culture medium supplemented with L-glutamine (2 mM), penicillin (50 U/ml), streptomycin (50 μg/ml) and fatal calf serum (10%) under standard culture conditions (37° C. and 5% CO2). The culture medium is then replaced by a DMEM analytical medium supplemented with L-glutamine (2 mM), penicillin (50 U/ml), streptomycin (50 μg/ml) and fatal calf serum (1%). This analytical medium may contain or may not contain (control conditions) the products to be tested and a compound used as reference, finasteride (10 μM), for 24 h of pre-incubation. The cells were then treated with an analytical medium containing [C^14]-testosterone and containing or not containing (control conditions) the test or reference products, and the cells were incubated for 24 h under these conditions. After incubation, supernatants were collected for testosterone metabolism analysis. All experiments were carried out three times. The steroid molecules were extracted from the supernatants with a chloroform/methanol mixture. The organic phase was collected and the different molecular species (testosterone metabolites) were separated by thin-layer chromatography using a solvent system containing dichloromethane, ethylacetate and methanol. An autoradiography was performed on the chromatography and the transformed testosterone was estimated by densitometric analysis.
Thus, the metabolism of testosterone to dihydrotestosterone reflects the 5α-reductase activity and is evaluated by the dihydrotestosterone/testosterone ratio.

| Compound | 5α-reductase inhibition, result in words | testosterone metabolism/dihydrotestosterone production (5α-reductase activity), change versus control = 100 (10 μM, n = 3) [%] | inhibition of 5α-reductase (40 μg/ml) [%] |
| --- | --- | --- | --- |
| CC(C)(C)NC(=O)[C@H]1CC[C@H]2[C@@H]3CC[C@H]4NC(=O)C=C[C@]4(C)[C@H]3CC[C@]12C [Finasteride, finasteride] | strong inhibition | −77 |  |
| CCCCCCCCCCCC(=O)OCC(O)CO (stereo not drawn) [glyceryl laurate] |  |  | 19 |
